According to patent US20240317735A1, “HYDROISOQUINOLINE OR HYDRONAPHTHYRIDINE COMPOUNDS FOR THE TREATMENT OF AUTOIMMUNE DISEASE” (Hoffmann-La Roche Inc., priority 2020, published 2024):

Columns and labels:
human TLR7 = biological target: T1, human TLR7 (Homo sapiens, UniProt Q9NYK1); test: HEK293-Blue-hTLR-7 cells assay (SEAP reporter, R848 stimulation); format: cell-based; details: HEK293-Blue-hTLR7 cells, R848, 20 hrs; read-out: HEK/hTLR7 IC50
T1 construct: host or cells: HEK293 (HEK-Blue hTLR7)
T1 sequence (Q9NYK1 27-1049): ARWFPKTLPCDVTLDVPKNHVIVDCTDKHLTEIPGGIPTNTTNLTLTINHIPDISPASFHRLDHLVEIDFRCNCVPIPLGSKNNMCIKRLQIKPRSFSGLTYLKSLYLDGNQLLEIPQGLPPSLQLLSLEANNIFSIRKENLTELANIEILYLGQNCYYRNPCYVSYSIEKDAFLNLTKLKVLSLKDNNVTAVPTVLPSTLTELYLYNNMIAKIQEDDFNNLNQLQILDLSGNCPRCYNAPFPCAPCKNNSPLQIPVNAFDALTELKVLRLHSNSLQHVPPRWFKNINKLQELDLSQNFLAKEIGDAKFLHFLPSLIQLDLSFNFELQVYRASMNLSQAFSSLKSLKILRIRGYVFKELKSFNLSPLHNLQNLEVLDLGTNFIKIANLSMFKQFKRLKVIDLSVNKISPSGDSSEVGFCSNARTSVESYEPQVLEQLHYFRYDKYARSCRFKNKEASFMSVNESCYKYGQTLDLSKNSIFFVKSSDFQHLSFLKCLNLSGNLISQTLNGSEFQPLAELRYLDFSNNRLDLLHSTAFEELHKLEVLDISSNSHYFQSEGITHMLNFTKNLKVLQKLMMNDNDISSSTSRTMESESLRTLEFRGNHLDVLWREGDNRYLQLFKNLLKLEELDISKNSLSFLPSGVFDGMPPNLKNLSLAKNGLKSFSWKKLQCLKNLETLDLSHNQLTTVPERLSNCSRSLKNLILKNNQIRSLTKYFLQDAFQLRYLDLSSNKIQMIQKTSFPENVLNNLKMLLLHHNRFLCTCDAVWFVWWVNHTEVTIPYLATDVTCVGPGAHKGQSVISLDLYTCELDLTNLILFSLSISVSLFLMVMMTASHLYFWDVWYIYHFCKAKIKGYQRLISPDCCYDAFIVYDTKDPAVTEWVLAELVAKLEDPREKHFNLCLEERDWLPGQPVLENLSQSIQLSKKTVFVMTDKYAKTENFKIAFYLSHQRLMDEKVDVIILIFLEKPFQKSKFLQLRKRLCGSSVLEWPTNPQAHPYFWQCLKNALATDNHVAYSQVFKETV
Description: The following tests were carried out in order to determine the activity of the compounds of formula (I) and (Ia) in HEK293-Blue-hTLR-7/8/9 cells assay.
A stable HEK293-Blue-hTLR-7 cell line was purchased from InvivoGen (Cat. #: hkb-htlr7, San Diego, California, USA). These cells were originally designed for studying the stimulation of human TLR7 by monitoring the activation of NF-κB. A SEAP (secreted embryonic alkaline phosphatase) reporter gene was placed under the control of the IFN-β minimal promoter fused to five NF-κB and AP-1-binding sites. The SEAP was induced by activating NF-κB and AP-1 via stimulating HEK-Blue hTLR7 cells with TLR7 ligands. Therefore the reporter expression w % as declined by TLR7 antagonist under the stimulation of a ligand, such as R848 (Resiquimod), for incubation of 20 hrs. The cell culture supernatant SEAP reporter activity was determined using QUANTI-Blue™ kit (Cat. #: rep-qb1, Invivogen, San Diego, Ca, USA) at a wavelength of 640 nm, a detection medium that turns purple or blue in the presence of alkaline phosphatase.
HEK293-Blue-hTLR7 cells were incubated at a density of 250,000˜450,000 cells/mL in a volume of 170 μL in a 96-well plate in Dulbecco's Modified Eagle's medium (DMEM) containing 4.5 g/L glucose, 50 U/mL penicillin, […], […] Normocin, 2 mM L-glutamine, 10% (v/v) heat-inactivated fetal bovine serum with addition of 20 μL test compound in a serial dilution in the presence of final DMSO at 1% and 10 μL of 20 uM R848 in above DMEM, perform incubation under 37° C. in a C02 incubator for 20 hrs. Then 20 μL of the supernatant from each well was incubated with 180 μL Quanti-blue substrate solution at 37° C. for 2 hrs and the absorbance was read at 620˜655 nm using a spectrophotometer. The signaling pathway that TLR7 activation leads to downstream NF-κB activation has been widely accepted, and therefore similar reporter assay was modified for evaluating TLR7 antagonist.

[1] = Human microsome stability assay; format: in vitro ADME; details: 1 μM test compound, 0.5 mg/mL liver microsomal protein, 37° C., pH 7.4
Description: The human microsomal stability assay is used for early assessment of metabolic stability of a test compound in human liver microsomes.
Human liver microsomes (Cat. NO.: 452117, Corning, USA; Cat. NO.: H2610, Xenotech, USA) were preincubated with test compound for 10 minutes at 37° C. in 100 mM potassium phosphate buffer, pH 7.4. The reactions were initiated by adding NADPH regenerating system. The final incubation mixtures contained 1 μM test compound, 0.5 mg/mL liver microsomal protein, 1 mM MgCl2, 1 mM NADP, 1 unit/mL isocitric dehydrogenase and 6 mM isocitric acid in 100 mM potassium phosphate buffer, pH 7.4. After incubation times of 0, 3, 6, 9, 15 and 30 minutes at 37° C., 300 μL of cold acetonitrile (including internal standard) was added to 100 μL incubation mixture to terminate the reaction. Following precipitation and centrifugation, the amount of compound remaining in the samples were determined by LC-MS/MS. Controls of no NADPH regenerating system at zero and 30 minutes were also prepared and analyzed.

Row | IC50 (human TLR7) [nM] | Clearance of Human microsome [1] [mL/min/kg] | Structure (SMILES)
1 | 4 | 6.2 | CC1CN(c2ccc3c(c2)[C@@H](C)CN(c2ccnc4c2cnn4C)C3)CCN1 (stereo partly drawn) [Example 15, (4R)-4-methyl-6-(3-methylpiperazin-1-yl)-2-(1-methylpyrazolo[3,4-b]pyridin-4-yl)-3,4-dihydro-1H-isoquinoline]
2 | 8 | 6.2 | C[C@H]1CN(c2ccnc3c2cnn3C)Cc2ccc(OCCN3CCNCC3)cc21 [Example 40, (4R)-4-methyl-2-(1-methylpyrazolo[3,4-b]pyridin-4-yl)-6-(2-piperazin-1-ylethoxy)-3,4-dihydro-1H-isoquinoline]
3 | 21 | 7.3 | Cc1cc(N2Cc3ccc(N4CCNCC4)nc3[C@H](C)C2)c2cnn(C)c2n1 [Example 72, (8R)-6-(1,6-dimethylpyrazolo[3,4-b]pyridin-4-yl)-8-methyl-2-piperazin-1-yl-7,8-dihydro-5H-1,6-naphthyridine]
4 | 19 | 6.2 | Cc1cc(N2Cc3cnc(OCCN4CCNCC4)cc3[C@@H](C)C2)c2cnn(C)c2n1 [Example 77, (4R)-2-(1,6-dimethylpyrazolo[3,4-b]pyridin-4-yl)-4-methyl-6-(2-piperazin-1-ylethoxy)-3,4-dihydro-1H-2,7-naphthyridine]
5 | 3 | 6.8 | C[C@H]1CN(c2ccnc3c2cnn3C)Cc2ccc(O[C@@H]3C[C@H]4CNCCN4C3)cc21 [Example 42, (4R)-4-methyl-2-(1-methylpyrazolo[3,4-b]pyridin-4-yl)-6-[[(7R,8aS)-1,2,3,4,6,7,8,8a-octahydropyrrolo[1,2-a]pyrazin-7-yl]oxy]-3,4-dihydro-1H-isoquinoline]
6 | 8 | 6.2 | C[C@H]1CN(c2ccnc3c2cnn3C)Cc2ccc(OC[C@H]3CNCCN3C)cc21 [Example 43, (4R)-4-methyl-2-(1-methylpyrazolo[3,4-b]pyridin-4-yl)-6-[[(2R)-1-methylpiperazin-2-yl]methoxy]-3,4-dihydro-1H-isoquinoline]
7 | 7 | 8.2 | C[C@H]1CN(c2ccnc3c2cnn3C)Cc2ccc(N3C[C@@H]4CCNCC4C3=O)cc21 (relative stereo) [Example 55, cis-2-[(4R)-4-methyl-2-(1-methylpyrazolo[3,4-b]pyridin-4-yl)-3,4-dihydro-1H-isoquinolin-6-yl]-3a,4,5,6,7,7a-hexahydro-1H-pyrrolo[3,4-c]pyridin-3-one]
8 | 19 | 8.0 | Cc1cc(N2Cc3cnc(N4CC5(CNCCO5)C4)cc3[C@@H](C)C2)c2cnn(C)c2n1 [Example 79, 2-[(5R)-7-(1,6-dimethylpyrazolo[3,4-b]pyridin-4-yl)-5-methyl-6,8-dihydro-5H-2,7-naphthyridin-3-yl]-5-oxa-2,8-diazaspiro[3.5]nonane]
9 | 13 | 7.2 | Cc1cc(N2Cc3ccc(N4CC5(CNCCO5)C4)cc3[C@@H](C)C2)c2cnn(C)c2n1 [Example 48, 2-[(4R)-2-(1,6-dimethylpyrazolo[3,4-b]pyridin-4-yl)-4-methyl-3,4-dihydro-1H-isoquinolin-6-yl]-5-oxa-2,8-diazaspiro[3.5]nonane]
10 | 13 | 6.2 | Cc1cc(N2Cc3ccc(N4C[C@@H](N)[C@H](O)C4)cc3[C@@H](C)C2)c2cnn(C)c2n1 [Example 47, trans-4-amino-1-[(4R)-2-(1,6-dimethylpyrazolo[3,4-b]pyridin-4-yl)-4-methyl-3,4-dihydro-1H-isoquinolin-6-yl]pyrrolidin-3-ol]
11 | 7 | 6.2 | C[C@H]1CN(c2ccnc3c2cnn3C)Cc2ccc(N3CC4(CCNCC4)OC3=O)cc21 [Example 26, 3-[(4R)-4-methyl-2-(1-methylpyrazolo[3,4-b]pyridin-4-yl)-3,4-dihydro-1H-isoquinolin-6-yl]-1-oxa-3,8-diazaspiro[4.5]decan-2-one]
12 | 18 | 7.0 | C[C@H]1CN(c2ccnc3c2cnn3C)Cc2ccc(N3C[C@@]4(CCNC4)CC3=O)cc21 (single isomer, unassigned) [Example 53]
13 | 17 | 9.8 | Cc1cc(N2Cc3ccc(N4CC5(CNCCO5)C4)nc3[C@@H](C)C2)c2cnn(C)c2n1 [Example 68, 2-[(8S)-6-(1,6-dimethylpyrazolo[3,4-b]pyridin-4-yl)-8-methyl-7,8-dihydro-5H-1,6-naphthyridin-2-yl]-5-oxa-2,8-diazaspiro[3.5]nonane]

Row | Structure (SMILES) | IC50 (human TLR7) [nM] | Clearance of Human microsome [1] [mL/min/kg]
14 | CO[C@@H]1CN(c2ccc3c(n2)[C@@H](C)CN(c2cc(C)nc4c2cnn4C)C3)C[C@H]1N [Example 63, (3R,4R)-4-methoxy-1-[(8S)-6-(1,6-dimethylpyrazolo[3,4-b]pyridin-4-yl)-8-methyl-7,8-dihydro-5H-1,6-naphthyridin-2-yl]pyrrolidin-3-amine] | 5 | 6.2
15 | C[C@H]1CN(c2ccnc3c2cnn3C)Cc2ccc(N3C4CCC3CNC4)cc21 [Example 27, (4R)-6-(3,8-diazabicyclo[3.2.1]octan-8-yl)-4-methyl-2-(1-methylpyrazolo[3,4-b]pyridin-4-yl)-3,4-dihydro-1H-isoquinoline] | 4 | 6.2
16 | C[C@H]1CN(c2ccnc3c2cnn3C)Cc2ccc(OC[C@@H]3CNCCN3)cc21 [Example 19, (4R)-4-methyl-2-(1-methylpyrazolo[3,4-b]pyridin-4-yl)-6-[[(2S)-piperazin-2-yl]methoxy]-3,4-dihydro-1H-isoquinoline] | 8 | 7.7
17 | CO[C@@H]1CN(c2ccc3c(c2)[C@@H](C)CN(c2ccnc4c2cnn4C)C3)C[C@H]1N [Example 20, (3R,4R)-4-methoxy-1-[(4R)-4-methyl-2-(1-methylpyrazolo[3,4-b]pyridin-4-yl)-3,4-dihydro-1H-isoquinolin-6-yl]pyrrolidin-3-amine] | 3 | 10.2
